Patent US20050228038A1, “11-Beta hydroxysteroid dehydrogenase type 1 inhibitors as anti-obesity/anti-diabetes compounds and 17-beta hydrosteroid dehydrogenase type I inhibitors as useful agents for the treatment of cancers, especially breast cancer” (priority 2004, published 2005)

Target: T1, 17betaHSD1 (Homo sapiens, UniProt P14061)
T1 sequence (P14061 1-328): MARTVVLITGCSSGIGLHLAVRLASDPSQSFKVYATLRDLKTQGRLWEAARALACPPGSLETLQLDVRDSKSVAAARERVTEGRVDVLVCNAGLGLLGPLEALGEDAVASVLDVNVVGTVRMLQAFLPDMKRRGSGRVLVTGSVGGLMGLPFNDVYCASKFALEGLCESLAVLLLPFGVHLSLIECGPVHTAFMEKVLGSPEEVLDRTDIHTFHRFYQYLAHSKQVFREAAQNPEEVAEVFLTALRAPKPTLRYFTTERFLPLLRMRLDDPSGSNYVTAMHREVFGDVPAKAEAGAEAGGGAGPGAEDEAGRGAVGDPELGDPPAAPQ
Assay: screen of gossypol related compounds against 17betaHSD1 (enzyme activity)
Type: biochemical
Settings: for Ki: read-out: inhibition constant
Protocol: Seven gossypol related compounds were screened against 17betaHSD1. […] Four gossypol derivatives, in which the aldehyde functional group is modified, were tested. The peri-acylated nitrites, gossylic nitrile diacetate and gossylic nitrile divalerate, represent compounds in which the aldehyde group is [drawing 13] converted to a nitrile, and the peri hydroxyl of gossypol is derivatized.
Gossylic iminolactone and gossylic lactone were the most promising compounds, producing 80-90% reduction in enzyme activity. The inhibition constants for gossylic lactone and gossylic iminolactone were determined to be 2.2 and 4.3 uM respectively.

| Ki | SMILES | other results |
| --- | --- | --- |
| 4.3 µM | Cc1cc2c(C(C)C)c(O)c(O)c3c2c(c1-c1c(C)cc2c(C(C)C)c(O)c(O)c4c2c1OC4=N)OC3=N [Gossylic iminolactone, gossylic iminolactone] |  |
|  | CC(=O)Oc1c(-c2c(C)cc3c(C(C)C)c(O)c(O)c(C#N)c3c2OC(C)=O)c(C)cc2c(C(C)C)c(O)c(O)c(C#N)c12 [Gossylic nitrile diacetate, gossylic nitrile diacetate] | reduction in enzyme activity (concentrations not given): 13% |
| 2.2 µM | Cc1cc2c(C(C)C)c(O)c(O)c3c2c(c1-c1c(C)cc2c(C(C)C)c(O)c(O)c4c2c1OC4=O)OC3=O [gossylic lactone] |  |
|  | CCCCC(=O)Oc1c(-c2c(C)cc3c(C(C)C)c(O)c(O)c(C#N)c3c2OC(=O)CCCC)c(C)cc2c(C(C)C)c(O)c(O)c(C#N)c12 [gossylic nitrile divalerate] | reduction in enzyme activity (in words) (concentrations not given): no reduction |
